Legend:
HIS-TGFβR1 T204D = target: T1, HIS-TGFβR1 T204D (Homo sapiens, UniProt P36897, T204D); experiment: HTRF probe-displacement assay, HIS-TGFβR1 T204D; assay type: binding; details: read-out: TGFβR1 (μM) IC50
T1 sequence (P36897 34-503 T204D): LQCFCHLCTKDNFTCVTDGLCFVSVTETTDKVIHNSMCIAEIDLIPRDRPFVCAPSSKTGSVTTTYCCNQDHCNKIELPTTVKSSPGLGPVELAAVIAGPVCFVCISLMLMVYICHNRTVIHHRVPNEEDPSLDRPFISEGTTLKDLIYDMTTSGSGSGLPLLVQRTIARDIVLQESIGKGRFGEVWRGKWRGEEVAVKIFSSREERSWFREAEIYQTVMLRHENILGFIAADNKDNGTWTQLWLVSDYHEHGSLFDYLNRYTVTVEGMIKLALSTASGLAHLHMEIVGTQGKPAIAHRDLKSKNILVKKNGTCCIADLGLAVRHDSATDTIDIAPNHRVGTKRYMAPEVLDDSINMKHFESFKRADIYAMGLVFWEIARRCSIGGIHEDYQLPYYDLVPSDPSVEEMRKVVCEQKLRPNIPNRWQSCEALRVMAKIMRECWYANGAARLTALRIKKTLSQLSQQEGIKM

HIS-TGFβR2 WT = HIS-TGFβR2 WT (Homo sapiens, UniProt P37173); experiment: HTRF probe-displacement assay, HIS-TGFβR2 WT; assay type: binding
Chain of HIS-TGFβR2 WT (P37173 23-567): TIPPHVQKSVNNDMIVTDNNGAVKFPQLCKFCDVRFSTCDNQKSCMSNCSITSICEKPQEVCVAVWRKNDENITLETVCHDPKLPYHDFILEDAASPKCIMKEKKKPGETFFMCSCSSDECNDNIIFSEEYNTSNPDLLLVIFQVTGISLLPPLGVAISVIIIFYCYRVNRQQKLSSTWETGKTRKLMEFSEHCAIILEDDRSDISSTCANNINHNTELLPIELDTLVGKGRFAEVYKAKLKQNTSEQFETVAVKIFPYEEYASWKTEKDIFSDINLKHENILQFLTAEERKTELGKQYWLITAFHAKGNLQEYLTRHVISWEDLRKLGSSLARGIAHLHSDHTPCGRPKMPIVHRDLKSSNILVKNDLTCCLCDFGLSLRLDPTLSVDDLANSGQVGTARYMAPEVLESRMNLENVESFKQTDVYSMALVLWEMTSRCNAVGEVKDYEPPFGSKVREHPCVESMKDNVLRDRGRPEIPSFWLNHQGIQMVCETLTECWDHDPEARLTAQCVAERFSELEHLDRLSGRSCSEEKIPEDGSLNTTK

IC50 (HIS-TGFβR1 T204D) [µM] | IC50 (HIS-TGFβR2 WT) [µM] | Structure (SMILES)
0.001 | 0.681 | CC(=O)Nc1cc(-c2[nH]c3c(C(C)O)ccnc3c2-c2ccc(Cl)nc2)ccn1 (stereo not drawn) [Example 264, N-(4-(3-(6-Chloropyridin-3-yl)-7-(1-hydroxyethyl)-1H-pyrrolo[3,2-b]pyridin-2-yl)pyridin-2-yl)acetamide]
0.053 | > 15 | COc1cnc2c(-c3ccc(C(F)F)cn3)c(-c3ccnc(NC(C)=O)c3)[nH]c2c1 [Example 110, N-(4-(3-(5-(Difluoromethyl)pyridin-2-yl)-6-methoxy-1H-pyrrolo[3,2-b]pyridin-2-yl)pyridin-2-yl)acetamide]
0.001 | 0.484 | CC(=O)Nc1cc(-c2[nH]c3c(C(O)C(F)F)ccnc3c2-c2cccc(C(F)F)n2)ccn1 (stereo not drawn) [Example 148, N-{4-[7-(2,2-Difluoro-1-hydroxyethyl)-3-[6-(difluoromethyl)pyridin-2-yl]-1H-pyrrolo[3,2-b]pyridin-2-yl]pyridin-2-yl}acetamide]
0.001 | 1.51 | COc1ccc(-c2c(-c3ccnc(NC(=O)CN4CCN(C)CC4)c3)[nH]c3cc(Cl)cnc23)cn1 [Example 292, N-(4-(6-chloro-3-(6-methoxypyridin-3-yl)-1H-pyrrolo[3,2-b]pyridin-2-yl)pyridin-2-yl)-2-(4-methylpiperazin-1-yl)acetamide]
0.016 | 0.93 | COc1ccc(-c2c(-c3ccnc(NC(C)=O)c3)[nH]c3ccc(OC)nc23)cn1 [Example 76, N-(4-(5-Methoxy-3-(6-methoxypyridin-3-yl)-1H-pyrrolo[3,2-b]pyridin-2-yl)pyridin-2-yl)acetamide]
0.017 | 9.23 | COc1ccc(-c2c(-c3ccnc(NC(C)=O)c3)[nH]c3c(C(=O)NC(CO)CO)cc(Cl)nc23)cn1 [Example 58, 5-Chloro-N-(1,3-dihydroxypropan-2-yl)-2-(2-acetamidopyridin-4-yl)-3-(6-methoxypyridin-3-yl)-1H-pyrrolo[3,2-b]pyridine-7-carboxamide]
0.001 | > 15 | COCC(C)Oc1cnc2c(-c3ccc(OC)cn3)c(-c3ccnc(NC(C)=O)c3)[nH]c2c1 (stereo not drawn) [Example 97, N-(4-(6-((1-Methoxypropan-2-yl)oxy)-3-(5-methoxypyridin-2-yl)-1H-pyrrolo[3,2-b]pyridin-2-yl)pyridin-2-yl)acetamide]
0.004 | > 15 | COc1ccc(-c2c(-c3ccnc(NC(C)=O)c3)[nH]c3cc(-c4c(C)nnn4C)cnc23)nc1 [Example 94, N-{4-[6-(Dimethyl-1H-1,2,3-triazol-5-yl)-3-(5-methoxypyridin-2-yl)-1H-pyrrolo[3,2-b]pyridin-2-yl]pyridin-2-yl}acetamide]
0.006 | 7.85 | COc1cccc(-c2c(-c3ccnc(NC(C)=O)c3)[nH]c3cccnc23)n1 [Example 2, N-{4-[3-(6-Methoxypyridin-2-yl)-1H-pyrrolo[3,2-b]pyridin-2-yl]pyridin-2-yl}acetamide]
0.006 | 4.05 | CNc1cc(-c2[nH]c3cc(Cl)cnc3c2-c2ccc(F)cn2)ccn1 [Example 82, 4-[6-Chloro-3-(5-fluoropyridin-2-yl)-1H-pyrrolo[3,2-b]pyridin-2-yl]-N-methylpyridin-2-amine]
0.005 | 0.011 | CC(=O)Nc1cc(-c2[nH]c3c(C(C)O)ccnc3c2-c2ccc(F)nc2)ccn1 (stereo not drawn) [Example 261, N-(4-(3-(6-Fluoropyridin-3-yl)-7-(1-hydroxyethyl)-1H-pyrrolo[3,2-b]pyridin-2-yl)pyridin-2-yl)acetamide]
6.52 | > 15 | COc1ccc(-c2c(-c3ccnc(NC(C)=O)c3)[nH]c3cc(C)cnc23)nc1 [Example 184, N-(4-(3-(5-Methoxypyridin-2-yl)-6-methyl-1H-pyrrolo[3,2-b]pyridin-2-yl)pyridin-2-yl)acetamide]
0.002 | > 15 | CC(=O)Nc1cc(-c2[nH]c3cccnc3c2-c2ccc(C(F)(F)F)nc2)ccn1 [Example 13, N-(4-{3-[6-(Trifluoromethyl)pyridin-3-yl]-1H-pyrrolo[3,2-b]pyridin-2-yl}pyridin-2-yl)acetamide]
< 0.001 | > 15 | COc1cnc2c(-c3cccc(C(F)F)n3)c(-c3ccnc(NC(=O)CN4CCN(CCO)CC4)c3)[nH]c2c1 [Example 123, N-(4-{3-[6-(Difluoromethyl)pyridin-2-yl]-6-methoxy-1H-pyrrolo[3,2-b]pyridin-2-yl}pyridin-2-yl)-2-[4-(2-hydroxyethyl)piperazin-1-yl]acetamide]
0.027 | 0.009 | CC(=O)Nc1cc(-c2[nH]c3cccnc3c2-c2cnc(F)c(C)c2)ccn1 [Example 11, N-{4-[3-(6-Fluoro-5-methylpyridin-3-yl)-1H-pyrrolo[3,2-b]pyridin-2-yl]pyridin-2-yl}acetamide]
0.0138 | 1.19 | CC(=O)Nc1cc(-c2[nH]c3cc(Cl)cnc3c2-c2ncc(Cl)s2)ccn1 [Example 168, N-(4-(6-Chloro-3-(5-chlorothiazol-2-yl)-1H-pyrrolo[3,2-b]pyridin-2-yl)pyridin-2-yl)acetamide]
0.01 | > 15 | CNCc1ccnc2c(-c3cccc(C(F)F)n3)c(-c3ccnc(NC(C)=O)c3)[nH]c12 [Example 151, N-(4-{3-[6-(Difluoromethyl)pyridin-2-yl]-7-[(methylamino)methyl]-1H-pyrrolo[3,2-b]pyridin-2-yl}pyridin-2-yl)acetamide]
0.0104 | 0.24 | CC(=O)Nc1cc(-c2[nH]c3cccnc3c2-c2ccc(C#N)s2)ccn1 [Example 188, N-(4-(3-(5-Cyanothiophen-2-yl)-1H-pyrrolo[3,2-b]pyridin-2-yl)pyridin-2-yl)acetamide]
3.54 | > 15 | CC(=O)Nc1cc(-c2[nH]c3cccnc3c2-c2nccc(Cl)n2)ccn1 [Example 197, N-(4-(3-(4-Chloropyrimidin-2-yl)-1H-pyrrolo[3,2-b]pyridin-2-yl)pyridin-2-yl)acetamide]
0.001 | 6.08 | CC(=O)Nc1cc(-c2[nH]c3c(CF)ccnc3c2-c2cccc(C(F)F)n2)ccn1 [Example 150, N-(4-{3-[6-(Difluoromethyl)pyridin-2-yl]-7-(fluoromethyl)-1H-pyrrolo[3,2-b]pyridin-2-yl}-pyridin-2-yl)acetamide]
0.15 | 1.35 | COc1ccc(-c2c(-c3ccnc(NC(C)=O)c3)[nH]c3cc(C)cnc23)cn1 [Example 173, N-(4-(3-(6-Methoxypyridin-3-yl)-6-methyl-1H-pyrrolo[3,2-b]pyridin-2-yl)pyridin-2-yl)acetamide]
0.0353 | > 15 | COc1ccc(-c2c(-c3ccnc(NC(C)=O)c3)[nH]c3cc(N(C)CCO)cnc23)nc1 [Example 165, N-(4-(6-((2-Hydroxyethyl)(methyl)amino)-3-(5-methoxypyridin-2-yl)-1H-pyrrolo[3,2-b]pyridin-2-yl)pyridin-2-yl)acetamide]
0.001 | 9.11 | CC(=O)Nc1cc(-c2[nH]c3c(C(C)O)ccnc3c2-c2nc(C(F)(F)F)cs2)ccn1 (stereo not drawn) [Example 231, N-(4-(7-(1-Hydroxyethyl)-3-(4-(trifluoromethyl)thiazol-2-yl)-1H-pyrrolo[3,2-b]pyridin-2-yl)pyridin-2-yl)acetamide]
0.005 | 1.03 | O=C(CNCCO)Nc1cc(-c2[nH]c3cc(Cl)cnc3c2-c2ccc(F)cn2)ccn1 [Example 75, N-{4-[6-Chloro-3-(5-fluoropyridin-2-yl)-1H-pyrrolo[3,2-b]pyridin-2-yl]pyridin-2-yl}-2-[(2-hydroxyethyl)amino]acetamide]
0.003 | 6.21 | COc1ccnc2c(-c3cccc(C)n3)c(-c3ccnc(NC(C)=O)c3)[nH]c12 [Example 257, N-(4-(7-Methoxy-3-(6-methylpyridin-2-yl)-1H-pyrrolo[3,2-b]pyridin-2-yl)pyridin-2-yl)acetamide]
0.0163 | > 15 | COc1ccc(-c2c(-c3ccnc(NC(C)=O)c3)[nH]c3cc(N4CCC(OC)CC4)cnc23)nc1 [Example 158, N-(4-(6-(4-Methoxypiperidin-1-yl)-3-(5-methoxypyridin-2-yl)-1H-pyrrolo[3,2-b]pyridin-2-yl)pyridin-2-yl)acetamide]
0.001 | 8.68 | COc1ccc(-c2c(-c3ccnc(NC(=O)CN(C)C)c3)[nH]c3cc(OC)cnc23)nc1 [Example 115, 2-(Dimethylamino)-N-{4-[6-methoxy-3-(5-methoxypyridin-2-yl)-1H-pyrrolo[3,2-b]pyridin-2-yl]pyridin-2-yl}acetamide]
0.041 | 0.45 | COc1ccc(-c2c(-c3ccnc(N)c3)[nH]c3cccnc23)cn1 [Example 52, 4-[3-(6-Methoxypyridin-3-yl)-1H-pyrrolo[3,2-b]pyridin-2-yl]pyridin-2-amine]
0.002 | 0.487 | COc1ccc(-c2c(-c3ccnc(NC(=O)CN4CCN(CCO)CC4)c3)[nH]c3cccnc23)cn1 [Example 288, 2-(4-(2-Hydroxyethyl)piperazin-1-yl)-N-(4-(3-(6-methoxypyridin-3-yl)-1H-pyrrolo[3,2-b]pyridin-2-yl)pyridin-2-yl)acetamide]
0.001 | 1.85 | COc1cnc2c(-c3cccc(C(F)F)n3)c(-c3ccnc(NC(C)=O)c3)[nH]c2c1 [Example 282, N-(4-(3-(6-(Difluoromethyl)pyridin-2-yl)-6-methoxy-1H-pyrrolo[3,2-b]pyridin-2-yl)pyridin-2-yl)acetamide]
